This is an account of results in patent US20260297081A1, “COMPOUNDS AND METHODS OF TREATING CANCERS” (Cullgen Inc., priority 2023, published 2026).

This experiment has as its system MCF7 cells. Description: Anti-proliferation (viability) of MCF7 cells (Table 7, FIG. 2B). The class given is cell-based. Particulars: Homo sapiens, MCF7, MCF7 cells, 3-6 days, 10-point serial dilution; read-out: GI IC50 in MCF-7.

The IC50 is the point on the concentration scale where inhibition reaches its midpoint.

Consider `CCNc1ccc(C(=O)Nc2cn(C)c(C3CC3)n2)c(NC2CC3(CC(NC(=O)CN4CCN(c5ccc(Nc6ncc7c(C)c(C(C)=O)c(=O)n(C8CCCC8)c7n6)nc5)CC4)C3)C2)n1` (stereo not shown) [CPD-293, 2-((6-(2-(4-(6-((6-acetyl-8-cyclopentyl-5-methyl-7-oxo-7,8-dihydropyrido[2,3-d]pyrimidin-2-yl)amino)pyridin-3-yl)piperazin-1-yl)acetamido)spiro[3.3]heptan-2-yl)amino)-N-(2-cyclopropyl-1-methyl-1H-imidazol-4-yl)-6-(ethylamino)nicotinamide], for which the IC50 is over 100 nM.
Next, `[2H]C([2H])([2H])Nc1ccc(C(=O)Nc2cc(C)on2)c(NC2CCC(NC(=O)CN3CCN(c4ccc(Nc5ncc6c(C)c(C(C)=O)c(=O)n(C7CCCC7)c6n5)nc4)CC3)C2)n1` (stereo not shown) [CPD-294, 2-((3-(2-(4-(6-((6-acetyl-8-cyclopentyl-5-methyl-7-oxo-7,8-dihydropyrido[2,3-d]pyrimidin-2-yl)amino)pyridin-3-yl)piperazin-1-yl)acetamido)cyclopentyl)amino)-6-((methyl-d3)amino)-N-(5-methylisoxazol-3-yl)nicotinamide]: over 100 nM; `CC(=O)c1c(C)c2cnc(Nc3ccc(N4CCN(CC(=O)NC5CCC(Nc6nc(NC(C)C)ccc6C(=O)Nc6cc(C)on6)C5)CC4)cn3)nc2n(C2CCCC2)c1=O` (stereo not shown) [CPD-295, 2-((3-(2-(4-(6-((6-acetyl-8-cyclopentyl-5-methyl-7-oxo-7,8-dihydropyrido[2,3-d]pyrimidin-2-yl)amino)pyridin-3-yl)piperazin-1-yl)acetamido)cyclopentyl)amino)-6-(isopropylamino)-N-(5-methylisoxazol-3-yl)nicotinamide]: over 100 nM; `CNc1ccc(C(=O)Nc2cn(C)c(C3CCCC3)n2)c(NC2CC3(CC(NC(=O)CN4CCN(c5ccc(Nc6ncc7c(C)c(C(C)=O)c(=O)n(C8CCCC8)c7n6)nc5)CC4)C3)C2)n1` (stereo not shown) [CPD-296, 2-((6-(2-(4-(6-((6-acetyl-8-cyclopentyl-5-methyl-7-oxo-7,8-dihydropyrido[2,3-d]pyrimidin-2-yl)amino)pyridin-3-yl)piperazin-1-yl)acetamido)spiro[3.3]heptan-2-yl)amino)-N-(2-cyclopentyl-1-methyl-1H-imidazol-4-yl)-6-(methylamino)nicotinamide]: over 100 nM.
Next, `CNc1ccc(C(=O)Nc2cc(C)n(C3CCC3)n2)c(NC2CC3(CC(NC(=O)CN4CCN(c5ccc(Nc6ncc7c(C)c(C(C)=O)c(=O)n(C8CCCC8)c7n6)nc5)CC4)C3)C2)n1` (stereo not shown) [CPD-297, 2-((6-(2-(4-(6-((6-acetyl-8-cyclopentyl-5-methyl-7-oxo-7,8-dihydropyrido[2,3-d]pyrimidin-2-yl)amino)pyridin-3-yl)piperazin-1-yl)acetamido)spiro[3.3]heptan-2-yl)amino)-N-(1-cyclobutyl-5-methyl-1H-pyrazol-3-yl)-6-(methylamino)nicotinamide]: over 100 nM; `CCCNc1ccc(C(=O)Nc2cn(C)c(C3CC3)n2)c(NC2CC3(CC(NC(=O)CN4CCN(c5ccc(Nc6ncc7c(C)c(C(C)=O)c(=O)n(C8CCCC8)c7n6)nc5)CC4)C3)C2)n1` (stereo not shown) [CPD-298, 2-((6-(2-(4-(6-((6-acetyl-8-cyclopentyl-5-methyl-7-oxo-7,8-dihydropyrido[2,3-d]pyrimidin-2-yl)amino)pyridin-3-yl)piperazin-1-yl)acetamido)spiro[3.3]heptan-2-yl)amino)-N-(2-cyclopropyl-1-methyl-1H-imidazol-4-yl)-6-(propylamino)nicotinamide]: over 100 nM; `CNc1ccc(C(=O)Nc2ccc(N(C)C)nn2)c(NC2CCN(C(=O)CNC3CCN(c4ccc(Nc5ncc6c(C)c(C(C)=O)c(=O)n(C7CCCC7)c6n5)nc4)CC3)CC2)n1` [CPD-299, 2-((1-((1-(6-((6-acetyl-8-cyclopentyl-5-methyl-7-oxo-7,8-dihydropyrido[2,3-d]pyrimidin-2-yl)amino)pyridin-3-yl)piperidin-4-yl)glycyl)piperidin-4-yl)amino)-N-(6-(dimethylamino)pyridazin-3-yl)-6-(methylamino)nicotinamide]: under 50 nM.
